# Assay results: patent US6552053B2, “Controlling attention and memory by altering neuronal carbonic anhydrase activity” (The United States of America as represented by the …, priority 2000, dated 2003)
# Entries after “also recorded” stand apart in the source; their conditions may differ. Structures can show the parent of a compound that is named as a salt.
# How the values were obtained:
# [1] = system: GABAergic inputs to hippocampal CA1 pyramidal cells; assay: Evoked GABAergic postsynaptic responses (IPSPs) of CA1 pyramidal cells; assay type: cell-based, rat
# Protocol: (§1) Hippocampal slice electrophysiology. CA1 field potentials were recorded with glass microelectrodes filled with an artificial cerebrospinal fluid solution (ACSF; see below). […] Whole slices were used unless otherwise indicated. […] Signals were amplified with AxoClamp-2B amplifier, digitized, stored, and analyzed using DigiData 1200 with P-Clamp6 software (Axon Instruments). Frequency and amplitude values of oscillation were taken from an average of five consecutive traces, all triggered at the same level of the same phase. Capacitance was optimally adjusted during discontinuous current-clamp mode before and after cell penetration to neutralize capacitance and reduce overshoot/undershoot errors. Discontinuous single-electrode voltage-clamp mode was used for voltage-clamping, employing a sampling rate of 3.0-5.0 kHz (30% duty cycle). Gain was usually set at 6-8 nA·mV^−1, slightly below the maximum value without causing overshoot or instability in the step response to a repetitive 10 mV step command. Bipolar stimulating electrodes (Teflon-insulated PtIr wire with 25 μm in diameter) were placed in s. pyramidale, within 200 μm, from the recording electrode, for stimulation of interneurons (50 μA, 50 μA) in the pyramidale layer. In some cases, the position of the stimulating electrodes was slightly varied within the CA1 cell layer to obtain monophasic postsynaptic responses. […] In some experiments, an additional stimulating electrode was placed in the stratum radiatum to stimulate the Schaffer collateral pathway (Sch). Experiments in which >20% variations in the evoked IPSP magnitudes occurred during the 10-min control period were discarded.
# [2] = system: hippocampal CA1 pyramidal cells; assay: Intracellular recording of CA1 pyramidal cells: membrane potential θ, discharge, input resistance; assay type: cell-based, rat
# Protocol: as §1
# [3] = Morris watermaze spatial memory task
# [4] = rat, intraperitoneal dose; cited from earlier work
# [5] = system: BAS-CA1 synapses of CA1 pyramidal cells; assay: BAS-CA1 postsynaptic potentials of CA1 pyramidal cells (Example 2); assay type: cell-based, rat; conditions: for effect of ACET itself on BAS-CA1 IPSPs / effect on CE action on the synaptic response: ACET 10 μM; for increase in evoked BAS-CA1 IPSPs: agent injected into the recorded pyramidal cell; for effect on CE action on BAS-CA1 PSP: agent injected into the recorded pyramidal cell before/with CE
# Protocol: Chemicals. Cloned CE (without the C-terminal P-loop) containing a His9 leader sequence was expressed in BL21 (DE3) Escherichia coli cells and purified by repeated affinity chromatography on Ni^2+-charged His-Bind columns (Novagen). […] Heat-inactivated proteins (100° C. for 5 min) were used as control.
# Electrophysiology. […] CA1 pyramidal cells were recorded intracellularly with sharp electrodes. Intracellular microelectrode recording rather than whole-cell clamp avoids immediate internal perfusion of the test proteins and agents into the cells and marked run-down of γ-aminobutyrate (GABA)-evoked currents. […] A bipolar stimulating electrode (Teflon-insulated PtIr wire 25 μm in diameter) was also placed in the stratum pyramidale, within 200 μm from the recording electrode, for stimulation of basket interneurons (BAS) (50 μA). In some experiments, an additional bipolar electrode was placed in the stratum radiatum to stimulate the Schaffer collateral pathway (SCH). CA1 neurons with stable resting membrane potential more negative than −70 mV were studied. […] Signals were amplified with AxoClamp-2B amplifier and digitized and stored by using a DigiData 1200 with the PCLAMP6 data collection and analysis software (Axon Instruments) and a Pentium PC computer. Experiments in which >20% variations in the evoked inhibitory postsynaptic potentials (IPSPs) during a 10 min control period occurred were discarded. Percent baseline PSP at each minute was calculated by dividing its value by baseline PSP then multiplying the result by 100. Baseline PSP was the mean of 10 min before treatments in each cell. A negative sign was added to indicate its inhibitory nature so that −100% is baseline IPSP and a positive value indicates an excitatory response. Differences were considered significant at P<0.05.
# [6] = system: SCH-CA1 excitatory postsynaptic potentials; assay: Schaffer collateral (SCH)-CA1 excitatory postsynaptic potentials; assay type: cell-based, rat
# Protocol: Hippocampal slice electrophysiology. CA1 field potentials were recorded with glass microelectrodes filled with an artificial cerebrospinal fluid solution (ACSF; see below). Male Sprague-Dawley rats ([…]) were decapitated, and the brains were removed and cooled rapidly in an ACSF solution (˜4° C.), bubbled continuously with 95% O2-5% CO2. Hippocampi were sliced ([…]), placed in oxygenated ACSF (in mM: 124 NaCl, 3 KCl; 1.3 MgSO4; 2.4 CaCl2; 26 NaHCO3; 1.25 NaH2PO4; and 10 glucose), and perfused (2 ml/min) with the oxygenated ACSF in an interface chamber at 30-31 ° C. Whole slices were used unless otherwise indicated. CA1 pyramidal cells were recorded intracellularly (Sun, M. -K., Nelson, T. J., Xu, H., and Alkon, D. L. Calexcitin transformation of GABAergic synapses: from excitation filter to amplifier. Proc. Natl. Acad. Sci. USA 96: 7023-7028, 1999, for cell labeling) with sharp electrodes (3M KAc; tip resistance: 60-120 M; to prevent “run-down” of GABAergic responses in whole-cell recordings due to wash out of intracellular factors). […] Signals were amplified with AxoClamp-2B amplifier, digitized, stored, and analyzed using DigiData 1200 with P-Clamp6 software (Axon Instruments). […]
# Electrophysiology. […] CA1 pyramidal cells were recorded intracellularly with sharp electrodes. […]
# [7] = system: hippocampal CA1 field potential; assay: CA1 field potential θ oscillation in hippocampal slices; assay type: cell-based, rat
# Protocol: as §1
# [8] = system: SCH-CA1 excitatory postsynaptic potentials; conditions: kynurenate 500 μM (Sun et al. 1999); cited from earlier work
# RyR = conditions: cited from earlier work
# [9] = 30 min, listed as Acetazolamide
# [10] = CA3 and dentate gyrus dissected away
# [11] = kynurenate 500 μM, 20-30 min, CCH-induced θ
structure (smiles),measurement,setting,value
"CC(=O)Nc1nnc(S(N)(=O)=O)s1 [ACET, acetazolamide]",evoked IPSP in the presence of ACET and CCH,"[1]; bath ACET 1 μM, CCH 50 μM",−7.7±1.0 mV
same,effect on calexcitin-induced intracellular θ activity,[2],did not induce; also recorded: prevented
same,induction of intracellular θ activity by CCH in presence of ACET,[2],nor intracellular θ activity (n=10; FIG. 4B3) was induced
same,reduction in escape latency during training trials vs saline group,"[3]; ACET 5 mg/0.5 ml/day ip (14-18 mg/kg), 65-70 min before first trial",strikingly smaller reduction
same,quadrant preference 24 h after last training trial,[3]; ACET 5 mg/0.5 ml/day ip during training,no preference to a particular quadrant
same,signs of discomfort or abnormal behaviors,[3]; during the experimental periods,no rats showed any apparent sign of discomfort or abnormal behaviors
same,memory retrieval: quadrant 4 preference vs saline control rats,"[3]; single ACET injection (5 mg/0.5 ml) 24 h after last training trial of trained rats, test 65-70 min later",no significant difference
same,time to peak concentration in the blood,[4],≤ 1 h
same,effect on CE-induced synaptic transformation,[5]; ACET 1 μM,eliminates
same,BAS-CA1 IPSPs 30 min after CE injection in the presence of ACET,"[5]; ACET 1 μM, 30 min, vs −100% control value",−99.2±3.5%
same,effect of ACET itself on BAS-CA1 IPSPs,[5]; 30 min,sufficient to transform the BAS-CA1 IPSPs
same,effect on CE action on the synaptic response,[5]; 30 min,abolishing effects of CE
same,effect of ACET itself on BAS-CA1 IPSPs,[5]; [9],sufficient to maintain IPSPs
same,effect on CE action on the synaptic response,[5]; [9],eliminating transformative effects of calexcitin
"O=C(O)CN(CC(=O)O)c1ccccc1OCCOc1ccccc1N(CC(=O)O)CC(=O)O [BAPTA, 1,2-bis(2-aminophenoxy)ethane-N,N,N′,N′-tetraacetic acid]",increase in evoked BAS-CA1 IPSPs,[5],17.4%±3.9%
same,effect on CE action on BAS-CA1 PSP,[5],not induced; also recorded: blocking
"C[N+](C)(C)CCOC(N)=O [CCH, carbachol]",single-pulse SCH stimulation-evoked excitatory postsynaptic potential,[6]; CCH,not altered
same,GABAergic postsynaptic response after CCH,"[1]; 30 min after CCH application, pre-CCH membrane potential maintained",+5.1±0.4 mV
same,reversal potential of GABAergic postsynaptic responses,[1]; during CCH 50 μM,−68.4±2.8 mV
same,response of pyramidal cells to stimulation of GABAergic inputs,"[1]; in the presence of CCH, θ frequency stimulation",elicited instantly phase-locked firing of pyramidal cells
same,evoked GABAergic current after CCH (inward current),"[1]; voltage clamp, CCH 50 μM",0.19±0.05 nA
same,input resistance when θ activity became evident,[2]; CCH,79.2±1.6 MΩ
same,θ oscillation of membrane potential (intracellular θ),[2]; CCH 50 μM,7.8±1.1 mV
same,averaged discharge rate,"[2]; CCH, 5-min observing period",2.7±0.3 spikes/s
same,CCH-induced θ activity amplitude in CA1 minislices,[7]; [10],0.73±0.04 mV
same,CCH-induced θ activity frequency in CA1 minislices,[7]; [10],7.7±0.9 Hz
same,duration of θ field potential (post-CCH recording period),"[7]; CCH 50 μM, 20 min",~3 h
same,θ field potential peak amplitude,"[7]; CCH 50 μM, 20 min, bath applied, whole slices",0.75±0.03 mV
same,θ field potential frequency,"[7]; CCH 50 μM, 20 min, whole slices",7.8±0.8 Hz
"O=C(O)c1cc(=O)c2ccccc2[nH]1 [KYN, kynurenic acid]",elimination of SCH-CA1 EPSPs,"[6]; KYN 500 μM, 20 min",> 90%
same,effect on evoked IPSPs,[1]; kynurenate 500 μM,not altered
same,excitatory postsynaptic responses of CA1 pyramidal cells to SCH stimulation,[8],effectively abolished
same,BAS-CA1 IPSP in the presence of KYN,[5]; KYN 500 μM,−8.1±0.4 mV
same,reversal potential of BAS-CA1 PSPs in the presence of KYN,[5]; KYN 500 μM,−78.9 mV
same,effect on evoked BAS-CA1 IPSPs,"[5]; KYN 500 μM, 20 min",does not alter
same,θ oscillation frequency in presence of kynurenate,[7]; [11],did not change
same,θ oscillation magnitude in presence of kynurenate,[7]; [11],slightly reduced
"N.N.N.N.N.N.N.N.N.N.N.N.N.N.[Cl-].[Cl-].[Cl-].[Cl-].[Cl-].[Cl-].[O-2].[O-2].[Ru+3].[Ru+3].[Ru+4] [RR, ruthenium red]",IC50,RyR,nanomolar range
same,increase in evoked BAS-CA1 IPSPs,[5],16.3%±4.0%
same,effect on CE action on BAS-CA1 PSP,[5],effectively blocked
CN1[C@@H]2CC[C@H]1C[C@@H](OC(=O)C(CO)c1ccccc1)C2 (stereo partly drawn) [atropine sulfate],effect on CCH-induced θ field activity,[7],blocked
NS(=O)(=O)c1nnc(NS(=O)(=O)c2ccccc2)s1 [benzolamide],effect on CCH-induced reversed GABAergic responses,[1]; intracellular application of benzolamide (0.1 mM in electrode),prevented
